From paper PMC7827406, “Structure–Activity Relationship (SAR) Study of Spautin-1 to Entail the Discovery of Novel NEK4 Inhibitors” (International Journal of Molecular Sciences, 2021)
Where two headings read alike, the source gives them in different places.

How the values were obtained:
Assay in all cases: biochemical
Parameters in all cases: Eurofins KinaseProfiler full panel at Km ATP, residual kinase activity (%) relative to DMSO
cSRC(h) = target: T1, cSRC(h) (Homo sapiens, UniProt P12931)
T1 construct: gene SRC
T1 sequence (P12931 whole entry): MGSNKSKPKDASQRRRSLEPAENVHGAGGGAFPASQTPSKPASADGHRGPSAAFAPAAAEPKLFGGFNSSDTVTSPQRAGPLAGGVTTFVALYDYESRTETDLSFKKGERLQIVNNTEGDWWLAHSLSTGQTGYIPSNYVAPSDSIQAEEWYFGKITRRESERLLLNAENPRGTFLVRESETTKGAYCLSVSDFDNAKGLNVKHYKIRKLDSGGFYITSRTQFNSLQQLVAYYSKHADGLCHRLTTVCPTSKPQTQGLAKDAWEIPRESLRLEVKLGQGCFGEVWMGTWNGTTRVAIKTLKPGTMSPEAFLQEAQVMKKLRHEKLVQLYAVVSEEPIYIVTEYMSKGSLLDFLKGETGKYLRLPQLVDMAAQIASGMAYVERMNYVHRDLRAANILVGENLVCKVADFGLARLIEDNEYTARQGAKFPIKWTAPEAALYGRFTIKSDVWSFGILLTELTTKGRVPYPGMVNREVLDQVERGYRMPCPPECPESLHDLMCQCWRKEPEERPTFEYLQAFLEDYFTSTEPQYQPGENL
In short: (§1)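 Radiometric kinase activity assays were run with ATP at Km and compounds at 10 µM, and remaining activity (%) was reported. A separate competitive binding screen measured DNA-tagged kinase displaced from immobilized active-site ligands by qPCR, giving percent kinase still bound at 10 µM compound in DMSO.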

TAO3(h) = target: T2, TAO3(h) (Homo sapiens, UniProt Q9H2K8)
T2 construct: gene TAOK3
T2 sequence (Q9H2K8 1-898): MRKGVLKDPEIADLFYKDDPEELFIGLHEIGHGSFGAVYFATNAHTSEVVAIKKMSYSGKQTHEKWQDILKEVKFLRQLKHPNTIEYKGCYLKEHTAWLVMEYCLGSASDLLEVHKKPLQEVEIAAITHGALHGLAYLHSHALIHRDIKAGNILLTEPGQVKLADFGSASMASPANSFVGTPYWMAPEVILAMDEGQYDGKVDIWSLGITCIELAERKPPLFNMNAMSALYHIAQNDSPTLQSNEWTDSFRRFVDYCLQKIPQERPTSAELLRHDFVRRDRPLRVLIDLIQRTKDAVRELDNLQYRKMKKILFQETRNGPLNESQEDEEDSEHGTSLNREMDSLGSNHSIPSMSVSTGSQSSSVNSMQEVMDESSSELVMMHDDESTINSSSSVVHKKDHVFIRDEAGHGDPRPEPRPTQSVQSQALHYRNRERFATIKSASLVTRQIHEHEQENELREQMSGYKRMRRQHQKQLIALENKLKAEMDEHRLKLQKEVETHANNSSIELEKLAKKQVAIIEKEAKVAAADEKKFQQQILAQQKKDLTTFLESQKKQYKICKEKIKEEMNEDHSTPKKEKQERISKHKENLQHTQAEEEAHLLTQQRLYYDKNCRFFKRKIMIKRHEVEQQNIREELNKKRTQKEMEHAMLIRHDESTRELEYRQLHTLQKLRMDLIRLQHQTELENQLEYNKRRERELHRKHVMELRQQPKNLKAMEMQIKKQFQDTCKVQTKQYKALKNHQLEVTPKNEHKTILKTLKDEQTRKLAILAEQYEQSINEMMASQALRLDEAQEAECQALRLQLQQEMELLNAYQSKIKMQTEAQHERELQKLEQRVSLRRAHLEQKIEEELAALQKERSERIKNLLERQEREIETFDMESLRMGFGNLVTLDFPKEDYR
In short: as §1

Wee1(h) = Wee1(h) (Homo sapiens, UniProt P30291)
Sequence of Wee1(h) (P30291 whole entry): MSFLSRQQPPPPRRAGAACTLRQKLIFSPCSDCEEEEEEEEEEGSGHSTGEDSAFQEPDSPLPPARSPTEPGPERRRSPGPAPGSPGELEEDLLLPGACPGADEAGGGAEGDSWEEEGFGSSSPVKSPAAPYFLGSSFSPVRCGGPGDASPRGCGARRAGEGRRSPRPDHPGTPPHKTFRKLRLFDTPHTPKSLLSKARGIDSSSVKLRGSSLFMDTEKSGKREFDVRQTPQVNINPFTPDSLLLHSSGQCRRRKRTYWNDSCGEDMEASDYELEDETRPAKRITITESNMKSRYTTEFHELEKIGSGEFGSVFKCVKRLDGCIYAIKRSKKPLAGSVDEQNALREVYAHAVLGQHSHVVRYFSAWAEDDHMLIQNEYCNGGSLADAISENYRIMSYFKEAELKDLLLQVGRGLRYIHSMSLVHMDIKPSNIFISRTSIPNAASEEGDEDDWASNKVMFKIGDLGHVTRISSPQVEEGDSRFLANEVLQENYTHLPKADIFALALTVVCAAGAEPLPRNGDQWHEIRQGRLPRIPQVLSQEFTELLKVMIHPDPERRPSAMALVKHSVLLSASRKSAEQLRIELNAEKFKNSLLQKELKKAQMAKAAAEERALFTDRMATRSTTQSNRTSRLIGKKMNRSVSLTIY
In short: as §1

CK2(h) = target: T3, CK2(h) (Homo sapiens, UniProt P68400)
T3 construct: gene CSNK2A1
T3 sequence (P68400 whole entry): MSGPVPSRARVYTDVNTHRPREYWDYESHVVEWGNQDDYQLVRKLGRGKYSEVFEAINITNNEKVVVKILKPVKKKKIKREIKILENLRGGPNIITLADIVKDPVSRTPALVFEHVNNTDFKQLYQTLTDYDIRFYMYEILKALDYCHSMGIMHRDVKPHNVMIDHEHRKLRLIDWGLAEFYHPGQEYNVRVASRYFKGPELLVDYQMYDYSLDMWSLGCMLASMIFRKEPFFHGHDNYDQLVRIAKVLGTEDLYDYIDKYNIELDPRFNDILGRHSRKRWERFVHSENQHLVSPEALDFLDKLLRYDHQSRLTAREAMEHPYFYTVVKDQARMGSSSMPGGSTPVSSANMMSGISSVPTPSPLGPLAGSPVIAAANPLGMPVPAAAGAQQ
T3 sequence (P67870 whole entry partner): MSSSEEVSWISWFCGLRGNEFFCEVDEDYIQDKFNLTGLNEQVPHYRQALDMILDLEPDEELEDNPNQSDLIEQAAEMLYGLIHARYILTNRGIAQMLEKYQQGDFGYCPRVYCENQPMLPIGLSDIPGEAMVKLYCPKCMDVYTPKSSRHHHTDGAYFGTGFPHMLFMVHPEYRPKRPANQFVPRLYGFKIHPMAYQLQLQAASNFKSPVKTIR
In short: as §1

DCAMKL1(h) = target: T4, DCAMKL1(h) (Homo sapiens, UniProt O15075)
T4 construct: gene DCLK1
T4 sequence (O15075 1-740): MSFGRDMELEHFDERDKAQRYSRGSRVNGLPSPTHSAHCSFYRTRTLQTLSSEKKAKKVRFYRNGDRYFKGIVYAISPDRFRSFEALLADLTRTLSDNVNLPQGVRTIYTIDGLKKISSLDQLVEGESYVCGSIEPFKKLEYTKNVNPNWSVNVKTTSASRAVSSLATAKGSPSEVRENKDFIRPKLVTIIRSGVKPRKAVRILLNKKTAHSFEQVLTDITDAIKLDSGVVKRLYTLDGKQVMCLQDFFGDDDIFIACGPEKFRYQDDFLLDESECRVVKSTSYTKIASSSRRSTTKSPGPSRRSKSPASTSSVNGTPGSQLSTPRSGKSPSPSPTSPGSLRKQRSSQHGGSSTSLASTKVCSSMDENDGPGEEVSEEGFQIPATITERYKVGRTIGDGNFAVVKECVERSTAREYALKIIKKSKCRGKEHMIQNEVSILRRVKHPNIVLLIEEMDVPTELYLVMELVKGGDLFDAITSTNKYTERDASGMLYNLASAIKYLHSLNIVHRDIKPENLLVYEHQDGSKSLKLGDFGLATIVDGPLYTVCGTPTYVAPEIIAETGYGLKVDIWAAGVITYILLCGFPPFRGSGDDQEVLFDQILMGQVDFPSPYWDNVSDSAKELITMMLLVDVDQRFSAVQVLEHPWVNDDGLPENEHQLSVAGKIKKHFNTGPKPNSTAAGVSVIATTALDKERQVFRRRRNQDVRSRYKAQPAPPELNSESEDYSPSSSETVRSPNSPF
In short: as §1

SRPK1(h) = SRPK1(h) (Homo sapiens, UniProt Q96SB4)
Sequence of SRPK1(h) (Q96SB4 whole entry): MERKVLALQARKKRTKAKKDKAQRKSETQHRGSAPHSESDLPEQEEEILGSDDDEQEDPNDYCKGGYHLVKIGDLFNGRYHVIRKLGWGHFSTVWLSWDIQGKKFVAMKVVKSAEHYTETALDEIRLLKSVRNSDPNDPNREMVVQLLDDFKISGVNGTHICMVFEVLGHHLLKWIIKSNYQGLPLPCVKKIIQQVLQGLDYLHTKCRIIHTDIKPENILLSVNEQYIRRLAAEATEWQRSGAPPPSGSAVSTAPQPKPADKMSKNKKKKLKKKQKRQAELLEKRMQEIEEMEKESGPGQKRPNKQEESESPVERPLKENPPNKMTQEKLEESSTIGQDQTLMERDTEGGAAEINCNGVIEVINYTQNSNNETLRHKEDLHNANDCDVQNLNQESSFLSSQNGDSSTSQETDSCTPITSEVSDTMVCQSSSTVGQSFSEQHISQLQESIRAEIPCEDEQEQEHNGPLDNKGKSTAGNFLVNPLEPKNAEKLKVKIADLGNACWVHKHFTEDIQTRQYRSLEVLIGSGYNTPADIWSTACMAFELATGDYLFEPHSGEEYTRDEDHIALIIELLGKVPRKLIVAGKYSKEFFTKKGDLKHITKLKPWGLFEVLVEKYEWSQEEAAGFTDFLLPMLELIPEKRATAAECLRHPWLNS
In short: as §1

[1] = read-out: Residual activity (%) Spautin-1 5aa
[2] = read-out: Residual activity (%) 5as
[3] = read-out: Residual activity (%) 5at
[4] = read-out: Residual activity (%) 5ay

## Fc1ccc(CNc2ncnc3ccc(F)cc23)cc1 [5aa, 6-Fluoro-N-(4-fluorobenzyl)-4-Quinazolinamine]
cSRC(h); [1]
  remaining activity at 10 µM: 133%
TAO3(h); [1]
  remaining activity at 10 µM: 94%
Wee1(h); [1]
  remaining activity at 10 µM: 109%
CK2(h); [1]
  remaining activity at 10 µM: 83%
DCAMKL1(h); [1]
  remaining activity at 10 µM: 95%
SRPK1(h); [1]
  remaining activity at 10 µM: 121%

## Fc1ccc(CCNc2ncnc3ccc(F)cc23)cc1 [5as, 6-Fluoro-N-[2-(4-Fluorophenyl)Ethyl]-4-Quinazolinamine]
cSRC(h); [2]
  remaining activity at 10 µM: 81%
TAO3(h); [2]
  remaining activity at 10 µM: 78%
Wee1(h); [2]
  remaining activity at 10 µM: 114%
CK2(h); [2]
  remaining activity at 10 µM: 78%
DCAMKL1(h); [2]
  remaining activity at 10 µM: 82%
SRPK1(h); [2]
  remaining activity at 10 µM: 112%

## Fc1ccc2ncnc(NCCc3ccc(Cl)cc3)c2c1 [5at, N-[2-(4-Chlorophenyl)Ethyl]-6-Fluoro-4-Quinazolinamine]
cSRC(h); [3]
  remaining activity at 10 µM: 120%
TAO3(h); [3]
  remaining activity at 10 µM: 82%
Wee1(h); [3]
  remaining activity at 10 µM: 89%
CK2(h); [3]
  remaining activity at 10 µM: 87%
DCAMKL1(h); [3]
  remaining activity at 10 µM: 89%
SRPK1(h); [3]
  remaining activity at 10 µM: 108%

## COc1ccc2ncnc(Nc3cccc(F)c3)c2c1 [5ay, N-(3-Fluorophenyl)-6-Methoxy-4-Quinazolinamine]
cSRC(h); [4]
  remaining activity at 10 µM: 106%
TAO3(h); [4]
  remaining activity at 10 µM: 77%
Wee1(h); [4]
  remaining activity at 10 µM: 102%
CK2(h); [4]
  remaining activity at 10 µM: 75%
DCAMKL1(h); [4]
  remaining activity at 10 µM: 84%
SRPK1(h); [4]
  remaining activity at 10 µM: 116%
